Reference: BindingDB's records for doi:10.1021/jm00039a015 (Abbott Laboratories, 1994)

Biological target: Platelet-activating factor receptor (Oryctolagus cuniculus)
Assay: Antagonist activity against platelet activating factor (PAF) receptor in rabbit platelet membranes using [3H]C18-PAF as radioligand

SMILES: Cc1cccc2c(C(=O)[C@@H]3CSC(c4cccnc4)N3)c[nH]c12 (stereo partly drawn) [(7-Methyl-1H-indol-3-yl)-((R)-2-pyridin-3-yl-thiazolidin-4-yl)-methanone]
- Ki: 6.5 nM
